From patent US9034877B2 (Wayne State University, priority 2009, dated 2015)
pKi: −log10 of the molar value. Counter-ions that a name gives are not always drawn.

Experiments:
D3 receptor = biological target: T1, D3 receptor (Rattus norvegicus, UniProt P19020); assay: Inhibition of [3H]spiperone binding to cloned D3 receptors expressed in HEK-293 cells; details: for pKi: [3H]spiperone, rat D3 in HEK-293 cells
T1 construct: expressed in transfected cells

hD3 receptor = biological target: T2, hD3 receptor (Homo sapiens, UniProt P35462); assay: Stimulation of [35S]GTPγS binding, hD3 receptor expressed in CHO cells; type: biochemical
T2 construct: expressed in transfected cells; host or cells: CHO

D2L receptor = biological target: T3, D2L receptor (Rattus norvegicus, UniProt P61169); assay: Inhibition of [3H]spiperone binding to cloned D2L receptors expressed in HEK-293 cells; details: rat D2L in HEK-293 cells, read-out: Ki, D2 receptor
T3 construct: expressed in transfected cells

6-OHDA lesioned rats = assay: Rotational experiment with 6-OHDA unilaterally lesioned rats; type: in vivo, rat; details: 0.05 mg/kg, 21 days post lesion, recorded for 30 min

T1 sequence (P19020 whole entry): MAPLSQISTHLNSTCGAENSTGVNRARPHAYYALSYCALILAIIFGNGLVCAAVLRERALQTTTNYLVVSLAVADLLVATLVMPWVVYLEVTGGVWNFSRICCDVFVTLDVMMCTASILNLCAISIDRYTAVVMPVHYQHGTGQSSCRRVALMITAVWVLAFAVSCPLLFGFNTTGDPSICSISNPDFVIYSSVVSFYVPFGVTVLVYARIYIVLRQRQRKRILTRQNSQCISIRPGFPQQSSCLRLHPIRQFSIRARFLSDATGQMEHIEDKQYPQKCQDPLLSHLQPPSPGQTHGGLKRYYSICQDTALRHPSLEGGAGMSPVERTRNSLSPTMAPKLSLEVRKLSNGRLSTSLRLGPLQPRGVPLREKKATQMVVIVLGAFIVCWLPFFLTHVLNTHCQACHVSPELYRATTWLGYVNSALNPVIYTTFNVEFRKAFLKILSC
T3 sequence (P61169 whole entry): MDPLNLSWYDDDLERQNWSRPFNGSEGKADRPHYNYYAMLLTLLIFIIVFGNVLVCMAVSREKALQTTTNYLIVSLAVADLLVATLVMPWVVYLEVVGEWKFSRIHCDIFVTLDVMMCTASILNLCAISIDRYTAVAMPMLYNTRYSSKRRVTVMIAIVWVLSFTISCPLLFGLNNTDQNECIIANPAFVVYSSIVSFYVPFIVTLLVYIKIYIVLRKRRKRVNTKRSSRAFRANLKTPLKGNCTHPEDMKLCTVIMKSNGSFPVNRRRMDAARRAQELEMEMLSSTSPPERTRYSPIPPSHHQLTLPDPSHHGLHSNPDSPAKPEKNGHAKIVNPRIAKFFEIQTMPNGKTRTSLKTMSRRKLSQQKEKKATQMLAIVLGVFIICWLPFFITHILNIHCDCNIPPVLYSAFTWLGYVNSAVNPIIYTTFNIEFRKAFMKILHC
T2 sequence (P35462 whole entry): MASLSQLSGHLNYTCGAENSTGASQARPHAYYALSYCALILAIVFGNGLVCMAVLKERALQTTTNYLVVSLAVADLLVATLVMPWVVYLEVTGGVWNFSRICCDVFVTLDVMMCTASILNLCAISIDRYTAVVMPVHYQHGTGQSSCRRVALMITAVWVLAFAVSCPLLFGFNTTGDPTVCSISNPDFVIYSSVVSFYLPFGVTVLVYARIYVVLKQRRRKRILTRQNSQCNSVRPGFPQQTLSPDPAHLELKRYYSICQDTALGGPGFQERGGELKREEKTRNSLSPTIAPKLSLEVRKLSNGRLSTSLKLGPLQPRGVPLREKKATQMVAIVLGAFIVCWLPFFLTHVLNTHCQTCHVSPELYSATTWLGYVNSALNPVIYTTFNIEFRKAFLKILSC

| Structure (SMILES) | melting point | pKi (D3 receptor) | pKi (D2L receptor) | also measured |
| --- | --- | --- | --- | --- |
| CCCN(CCN1CCN(C(=O)c2cc3ccccc3[nH]2)CC1)C1CCc2ccc(O)cc2C1 (stereo not drawn) (as salt: HCl) [Compound 40c, (4-{2-[(7-Hydroxy-1,2,3,4-tetrahydro-naphthalen-2-yl)-propyl-amino]-ethyl}-piperazin-1-yl)-(1H-indol-2-yl)-methanone] | 203 to 205 °C |  |  |  |
| CCCN(CCN1CCN(C(=O)c2c[nH]c3ccccc23)CC1)C1CCc2c(O)cccc2C1 (stereo not drawn) (as salt: HCl) [Compound 40f, (4-{2-[(5-Hydroxy-1,2,3,4-tetrahydro-naphthalen-2-yl)-propyl-amino]-ethyl}-piperazin-1-yl)-(1H-indol-3-yl)-methanone] | 147 to 151 °C |  |  |  |
| CCCN(CCN1CCN(C(=O)c2n[nH]c3ccccc23)CC1)C1CCc2c(O)cccc2C1 (stereo not drawn) (as salt: HCl) [Compound 40g, (4-{2-[(5-Hydroxy-1,2,3,4-tetrahydro-naphthalen-2-yl)-propyl-amino]-ethyl}-piperazin-1-yl)-(1H-indazol-3-yl)-methanone] | 167 to 170 °C |  |  |  |
| CCCN(CCN1CCN(C(=O)c2cc3ccccc3s2)CC1)C1CCc2c(O)cccc2C1 (stereo not drawn) (as salt: HCl) [Compound 40i, Benzo[b]thiophen-2-yl-(4-{2-[(5-hydroxy-1,2,3,4-tetrahydro-naphthalen-2-yl)-propyl-amino]-ethyl}-piperazin-1-yl)-methanone] | 131 to 134 °C |  |  |  |
| CCCN(CCN1CCN(C(=O)c2cnc3ccccc3c2)CC1)C1CCc2c(O)cccc2C1 (stereo not drawn) (as salt: HCl) [Compound 40j, (4-{2-[(5-Hydroxy-1,2,3,4-tetrahydro-naphthalen-2-yl)-propyl-amino]-ethyl}-piperazin-1-yl)-quinolin-3-yl-methanone] | 142 to 146 °C |  |  |  |
| CCCN(CCN1CCN(Cc2ccc(O)c3ncccc23)CC1)C1CCc2c(O)cccc2C1 (stereo not drawn) (as salt: hydrochloride) [Compound 12b, 5-((4-(2-((5-hydroxy-1,2,3,4-tetrahydronaphthalen-2-yl)(propyl)amino)ethyl)piperazin-1-yl)methyl)quinolin-8-ol] | 252 to 255 °C |  |  |  |
| CCCN(CCN1CCN(Cc2ccc3[nH]ccc3c2)CC1)C1CCc2ccc(O)cc2C1 (stereo not drawn) (as salt: oxalate) [Compound 40b, 7-({2-[4-(1H-Indol-5-ylmethyl)-piperazin-1-yl]-ethyl}-propyl-amino)-5,6,7,8-tetrahydro-naphthalen-2-ol] | 198 to 203 °C |  |  |  |
| CCCN(CCN1CCN(Cc2cc3ccccc3[nH]2)CC1)C1CCc2ccc(O)cc2C1 (stereo not drawn) (as salt: oxalate) [Compound 40d, 7-({2-[4-(1H-Indol-2-ylmethyl)-piperazin-1-yl]-ethyl}-propyl-amino)-5,6,7,8-tetrahydro-naphthalen-2-ol] | 135 to 137 °C |  |  |  |
| CCCN(CCN1CCN(c2ccc3[nH]ccc3c2)CC1)C1CCc2ccc(O)cc2C1 (stereo not drawn) (as salt: oxalate) [Compound 52, 7-((2-(4-(1H-indol-5-yl)piperazin-1-yl)ethyl)(propyl)amino)-5,6,7,8-tetrahydro-naphthalen-2-ol] | 179 to 183 °C |  |  |  |
| CCCN(CCN1CCN(C(=O)c2cc3ccccc3[nH]2)CC1)C1CCc2c(O)cccc2C1 (racemic) [Compound 40e, (4-{2-[(5-Hydroxy-1,2,3,4-tetrahydro-naphthalen-2-yl)-propyl-amino]-ethyl}-piperazin-1-yl)-(1H-indol-2-yl)-methanone] |  | 9.26 |  |  |
| CCCN(CCN1CCN(C(=O)c2cc3ccccc3[nH]2)CC1)C1CCc2c(O)cccc2C1 (single isomer, unassigned; (+)) (as salt: HCl) [Compound (+)-40e, (+)-(4-{2-[(5-Hydroxy-1,2,3,4-tetrahydro-naphthalen-2-yl)-propyl-amino]-ethyl}-piperazin-1-yl)-(1H-indol-2-yl)-methanone] | 169 to 170 °C |  |  |  |
| CCCN(CCN1CCN(c2ccnc3c(O)cccc23)CC1)C1CCc2c(O)cccc2C1 (single isomer, unassigned; (+)) (as salt: hydrochloride) [(+)19b, (+)-4-(4-(2-((5-hydroxy-1,2,3,4-tetrahydronaphthalen-2-yl) (propyl)amino)ethyl)piperazin-1-yl)quinolin-8-ol] | 230 to 232 °C |  |  |  |
| CCCN(CCN1CCN(c2ccnc3c(O)cccc23)CC1)C1CCc2ccc(O)cc2C1 (single isomer, unassigned; (+)) [(+)19a, (+)-4-(4-(2-((7-hydroxy-1,2,3,4-tetrahydronaphthalen-2-yl) (propyl)amino)ethyl)piperazin-1-yl)quinolin-8-ol] |  |  |  | Agonism at D3 compared with dopamine (hD3 receptor): full or near-complete agonism |
| CCCN(CCN1CCN(C(=O)c2cc3ccccc3[nH]2)CC1)C1CCc2c(O)cccc2C1 (single isomer, unassigned; (-)) (as salt: HCl) [Compound (−)-40e, (−)-(4-{2-[(5-Hydroxy-1,2,3,4-tetrahydro-naphthalen-2-yl)-propyl-amino]-ethyl}-piperazin-1-yl)-(1H-indol-2-yl)-methanone] | 168 to 169 °C |  |  |  |
| CCCN(CCN1CCN(c2ccnc3c(O)cccc23)CC1)C1CCc2c(O)cccc2C1 (single isomer, unassigned; (-)) (as salt: hydrochloride) [Compound (−)19b, (−)-4-(4-(2-((5-hydroxy-1,2,3,4-tetrahydronaphthalen-2-yl) (propyl)amino)ethyl)piperazin-1-yl)quinolin-8-ol] | 237 to 240 °C |  |  |  |
| CCCN(CCN1CCN(Cc2ccc(O)c3ncccc23)CC1)C1CCc2ccc(O)cc2C1 (stereo not drawn) [Compound 12a, 5-((4-(2-((7-hydroxy-1,2,3,4-tetrahydronaphthalen-2-yl)(propyl)amino)ethyl)piperazin-1-yl)methyl) quinolin-8-ol] |  | 8.25 | 7.07 |  |
| CCCN(CCN1CCN(Cc2ccc(O)c3ncccc23)CC1)C1CCc2c(O)cccc2C1 (stereo not drawn) [Compound 12b, 5-((4-(2-((5-hydroxy-1,2,3,4-tetrahydronaphthalen-2-yl)(propyl)amino)ethyl)piperazin-1-yl)methyl)quinolin-8-ol] |  | 8.43 |  |  |
| CCCN(CCN1CCN(c2ccnc3c(O)cccc23)CC1)C1CCc2c(O)cccc2C1 (stereo not drawn) [Compound 19b] |  | 8.87 |  |  |
| CCCN(CCN1CCN(Cc2ccc3[nH]ccc3c2)CC1)C1CCc2ccc(O)cc2C1 (stereo not drawn) [Compound 40b, 7-({2-[4-(1H-Indol-5-ylmethyl)-piperazin-1-yl]-ethyl}-propyl-amino)-5,6,7,8-tetrahydro-naphthalen-2-ol] |  | 8.41 | 6.84 |  |
| CCCN(CCN1CCN(C(=O)c2cc3ccccc3[nH]2)CC1)C1CCc2ccc(O)cc2C1 (stereo not drawn) [Compound 40c, (4-{2-[(7-Hydroxy-1,2,3,4-tetrahydro-naphthalen-2-yl)-propyl-amino]-ethyl}-piperazin-1-yl)-(1H-indol-2-yl)-methanone] |  | 8.43 | 6.94 | D2/D3 (Ki ratio, binding selectivity) (D3 receptor; Ki D2 / Ki D3): 31 |
| CCCN(CCN1CCN(C(=O)c2c[nH]c3ccccc23)CC1)C1CCc2c(O)cccc2C1 (stereo not drawn) [Compound 40f, (4-{2-[(5-Hydroxy-1,2,3,4-tetrahydro-naphthalen-2-yl)-propyl-amino]-ethyl}-piperazin-1-yl)-(1H-indol-3-yl)-methanone] |  | 8.44 | 7.23 |  |
| CCCN(CCN1CCN(C(=O)c2n[nH]c3ccccc23)CC1)C1CCc2c(O)cccc2C1 (stereo not drawn) [Compound 40g, (4-{2-[(5-Hydroxy-1,2,3,4-tetrahydro-naphthalen-2-yl)-propyl-amino]-ethyl}-piperazin-1-yl)-(1H-indazol-3-yl)-methanone] |  | 8.55 | 7.55 |  |
| CCCN(CCN1CCN(C(=O)c2cc3ccccc3s2)CC1)C1CCc2c(O)cccc2C1 (stereo not drawn) [Compound 40i, Benzo[b]thiophen-2-yl-(4-{2-[(5-hydroxy-1,2,3,4-tetrahydro-naphthalen-2-yl)-propyl-amino]-ethyl}-piperazin-1-yl)-methanone] |  | 8.77 | 7.11 |  |
| CCCN(CCN1CCN(C(=O)c2cnc3ccccc3c2)CC1)C1CCc2c(O)cccc2C1 (stereo not drawn) [Compound 40j, (4-{2-[(5-Hydroxy-1,2,3,4-tetrahydro-naphthalen-2-yl)-propyl-amino]-ethyl}-piperazin-1-yl)-quinolin-3-yl-methanone] |  |  | 6.80 |  |
| CCCN(CCN1CCN(c2ccc3[nH]ccc3c2)CC1)C1CCc2ccc(O)cc2C1 (stereo not drawn) [Compound 52, 7-((2-(4-(1H-indol-5-yl)piperazin-1-yl)ethyl)(propyl)amino)-5,6,7,8-tetrahydro-naphthalen-2-ol] |  | 8.70 | 7.52 |  |
| CCCN(CCN1CCN(C(=O)c2ccc3[nH]ccc3c2)CC1)[C@H]1CCc2c(O)cccc2C1 [Compound (−)-45, (S)-(4-{2-[(5-Hydroxy-1,2,3,4-tetrahydro-naphthalen-2-yl)-propyl-amino]-ethyl}-piperazin-1-yl)-(1H-indol-5-yl)-methanone] |  | 8.64 | 6.80 |  |
| CN1CCc2cccc3c2[C@H]1Cc1ccc(O)c(O)c1-3 [apomorphine] |  |  |  | Average contralateral rotation (6-OHDA lesioned rats): > 250 |
